The text below walks through data of patent US12116611B2, “Method of treating intellectual disability, autism and epilepsy associated with an IQSEC2 mutation and for identifying medicaments for treating the same” (TECHNION RESEARCH & DEVELOPMENT FOUNDATION LIMITED, priority 2018, dated 2024).

Each structure is given as a SMILES string. Values joined by “and” are separate entries in the source; they are usually repeats but may differ in a detail not shown here. Equal entries are not always repeated. “Also recorded” adds a separate entry of the source. Where two headings read alike, the source gives them in different places.

For assay [1], the target named is calmodulin (Homo sapiens, UniProt P0DP23). The following applies: Persechini and Cronk et al, 1999; read-out: Kd of calcium for calmodulin; cited from earlier work.
Assay [2] deals with calmodulin-IQSEC2 interaction. Put plainly: Binding of luciferase-IQSEC2 to calmodulin-sepharose in vitro. Also on record: species or system human. The following applies: for EC50: read-out: Free calcium concentration for half-maximal binding of calcium-calmodulin to IQSEC2. As for the experimental part:
The binding of wild type and mutant IQSEC2 to calmodulin was assessed in vitro using calmodulin-sepharose (BioVision, Milipetas, CA). Extracts from stably transfected cells were prepared in either buffer A [50 mM Tris pH 7.5; 150 mM NaCl, 10 mg/ml BSA; 5 mM EGTA and 0.1% Triton X-100] or buffer B [10 mM Tris pH 7.5; 150 mM NaCl, 5 mM EGTA, 5% glycerol, 0.5% Triton X-100]. Extracts were clarified by centrifugation at 14000 rpm at 4° C. to remove insoluble debris and the amount of luciferase activity in the extract assessed using the Promega luciferase assay system and a Turner TD 20/20 luminometer. Extracts (10,000-100,000 luciferase units) were then incubated in buffer A or buffer B with or without CaCl2 in a total volume of 1 cc. The concentration of free calcium in the incubation conditions was calculated using the maxchelator algorithm (maxchelator.stanford.edu) which is based on the ionic strength, pH, temperature and dissociation constant of EGTA for calcium. The concentration of free calcium used in these studies ranged from 0.73 nM to 2 mM. 10 μl of calmodulin-sepharose was added to the incubation and mixed on a rotary apparatus for 3-4 hours. The calmodulin-sepharose was washed twice with binding buffer, resuspended in 100 μl of luciferase reagent lysis buffer and 20 μl was assessed for luciferase activity.
Investigation of this interaction in a cell-free system in vitro using luciferase tagged IQSEC2 and calmodulin coupled to sepharose allowed for the precise control of calcium concentration which is known to dramatically affect the conformation and interactions of calmodulin with other proteins. In this system luciferase activity associated with calmodulin sepharose was used a quantitative readout of the calmodulin-IQSEC2 interaction. The IQ motif is present in over 100 proteins and in some cases preferentially binds to calcium-calmodulin while in other cases it binds preferentially to calcium-free calmodulin (apocalmodulin) (Bahler and Rhoads, 2002). […] However, when the effect of calcium on the IQSEC2 calmodulin interaction was assessed, it was observed that calcium increased the binding of calmodulin to IQSEC2. Upon reviewing the buffers used by the research group in assessing binding of IQSEC2 to calmodulin, it was discovered that the concentration of Triton X-100 used in the binding and wash buffers was differed. […] Triton X-100 binds to most proteins via both hydrophobic and polar interactions [Singh and Kishore, 2006] and may thereby disrupt protein-protein interactions at high concentrations. […] The binding of wild type or A350V luciferase-IQSEC2 to calmodulin was assessed over a wide range of calcium concentrations.

Assay [3] deals with endogenous Arf6. The assay can be described thus: Arf6-GTP GGA3 pulldown assay in transfected HEK293T cells, with or without ionomycin. The format is cell-based, human. How it is done:
For the assessment of Arf6-GTP using a GGA-3 pulldown assay and western blot, HEK293T cells were transfected with FLAG-tagged WT, A350V, or R359C IQSEC2 in pCAGGS vector by calcium phosphate. Twenty-four hours after transfection, the cultures were treated with 5 μM ionomycin or ethanol vehicle for 5 mins, then lysed in 50 mM Tris-HCl, pH 7.5, 100 mM NaCl, 2 mM MgCl2, 0.2% SDS, 0.5% sodium deoxycholate, 1% Triton X-100, 10% glycerol, and 1× Halt protease inhibitor cocktail. An Arf6-GTP pull-down assay was carried out as described (Shoubridge et al, 2010). Briefly, lysates were cleared by centrifugation at 10,000 rpm for 10 min and incubated with GGA3:GST on glutathione-sepharose beads for 5 hours at 4° C. The beads were washed and bound proteins were eluted and probed by immunoblot with rabbit anti-Arf6 (1:750, Cell Signaling #5740). Lysates were also probed against total Arf6 and with rabbit anti-FLAG (1:1000; Covance #PRB-132P) to detect expression of FLAG-IQSEC2. Bands were visualized with the use of a LiCor Odyssey imaging system and quantified with Image Studio Lite. Each band was normalized to the untreated sham-transfected control. The data were statistically analyzed by one-way ANOVA followed by Tukey's Multiple Comparison Test for post-hoc analysis.
The activation of Arf6 (Arf6-GTP) by wild type, A350V, or R359C IQSEC2 in a GGA3 pulldown assay was also assessed. HEK 293T cells were transiently transfected with constructs to express either wild type, A350V or R359C IQSEC2, and endogenous Arf6 activation was tested with or without treatment with the calcium ionophore ionomycin. […] Cell lysates were incubated with beads coated with GGA3:GST to isolate the GTP-bound Arfs, and bound Arf6 was assessed by immunoblot (FIG. 4A).

As to `[Ca+2]` [calcium], in assay [1], the Kd (in general, a measure of binding affinity in units of concentration) was 1 µM and ~1 µM. Moreover, the “Change in binding of calmodulin to wild type IQSEC2” value is on record as “several fold decrease; also recorded: significant decrease” in assay [2] (100 μM calcium, high (0.5%) Triton X-100) and “several fold increase; also recorded: significant increase” in assay [2] (100 uM calcium, low (0.1%) Triton X-100). In addition, the EC50 in assay [2] (A350V IQSEC2, 0.1% Triton X-100) was ~1 µM; in assay [2] (wild type IQSEC2, 0.1% Triton X-100), ~1 µM.

As to `C[C@H](CCC(=O)O)C[C@H](C)C[C@H](C)C(=O)/C=C(\O)[C@H](C)C[C@H](C)C/C=C/[C@@H](C)[C@@H](O)[C@@H](C)[C@@H](O)C[C@@H]1CC[C@@](C)([C@H]2CC[C@@](C)([C@@H](C)O)O2)O1` [ionomycin], in assay [3] (HEK293T cells transfected with A350V IQSEC2), the “Effect of ionomycin on Arf6 activation” value is “did not further increase Arf6 activation”. The “Effect of ionomycin on Arf6-GTP induction” value in assay [3] (HEK293T cells transfected with R359C IQSEC2) is reported as “unresponsive”. Moreover, in assay [3] (HEK293T cells transfected with wild type IQSEC2, 5 μM ionomycin for 5 mins), the “Arf6 activation (Arf6-GTP) compared to sham transfected cells” value was 8.03±1.89 fold increase.
